Where two headings read alike, the source gives them in different places. Marks after values point to notes of the source that are not given here.
Experiments:
[1] = Protonation constants of the ligands by pH-potentiometric titration; type: physicochemical; conditions: for Σ log K2H: log K1H + log K2H
Protocol: (§1) The concentration of the ligand solutions was determined by pH-potentiometric titration in the presence and absence of an excess (5–10 fold) of MnCl2. For determining the protonation constants of the investigated ligands, pH-potentiometric titrations were made by means of 0.2 M standardized NaOH in 2 and 3 mM ligand solutions in the pH-range of 1.75–11.85. All equilibrium measurements were performed at a constant 0.15 M NaCl ionic strength at 25 °C. The protonation and the stability constants of the Mn(II) complexes were determined by pH-potentiometric titrations (DOTP, DO3A, PCTA, ODO3A, DO3P) while owing to the slow formation rates of Mn(II) complexes formed with amide type ligands, the stability constants of DOTAM, DOTMA, DO3AM^H, PC3AM^H, PC3AM^Gly, PC3AM^Pip complexes were determined by out-of-cell pH-potentiomertry in combination with ^1H relaxometry. The metal-to-ligand concentration ratio in the solutions was 1:1. For the calculation of protonation constants of the ligands and the log KMnL and log KMnLHi values of the complexes, mL–pH data pairs (50–180), obtained in the pH range of 1.75–11.85 or r1obs-pH data pairs (10–15 batch samples) obtained in the pH range of 2–4.5 were used (the samples were equilibrated for 4–7 days). The equilibrium constants characterizing the deprotonation that occurs at basic pH were determined from the data obtained via direct pH-potentiometric titrations performed on the pre-formed complexes.
(§2) The pH-potentiometric titrations were carried out with a Methrohm 888 Titrando titration workstation using a Metrohm-6.0233.100 combined electrode. The samples (6.00 mL) were thermostated at 25 °C. The samples were stirred and kept under inert gas (N2) to avoid the effect of CO2. KH-phthalate (pH = 4.005) and borax (pH = 9.177) buffers were used for the pH-calibration. The method proposed by Irving et al. was used for the calculation of H^+ concentrations from the measured pH values (Irving et al., [1967]). A 0.01 M HCl (I = 0.15 M set with NaCl) solution was titrated with standardized NaOH solution of known concentration (approx. 0.2 M). The correction factor obtained as difference of calculated pH and measured pH values was used to calculate the [H^+] in the samples. The ionic product of water was determined from the same titrations (HCl/NaOH) from the data collected in the pH range of 11.20–11.85.
The protonation and complexation equilibria of the macrocyclic ligands and their Mn(II) complexes have been studied by pH-potentiometric and relaxometric methods in the presence of 0.15 M NaCl whose ionic strength mimics the physiological conditions. The protonation constants of the ligands were evaluated by fitting the pH-V(mL) base data pairs collected in the pH-potentiometric titrations. The protonation equilibria of the ligands can be described by Equation (2). (a comparison of previously published log K^H data available in the Supplementary Material) together with the constants of H4DOTA, cis- and trans-H2DO2A derivatives given for comparison. (2) KiH=[HiL]/[Hi-1L][H^+],i=1,2,…

[2] = Stability and protonation constants and pMn of the Mn(II) complexes (pH-potentiometry and/or 1H relaxometry); type: physicochemical; conditions: I = 0.15 M NaCl, 25 °C; for pMn: calculated at pH = 7.4, cM = cL = 10^−5 M; for log KML: stability constant of the Mn(II) complex; for log KMLH: protonation constant of the Mn(II) complex; for log KMHLH: second protonation constant of the Mn(II) complex; for log KMH2LH: third protonation constant of the Mn(II) complex; for log KMLOH: ternary hydroxido complex of Mn(II)
Protocol: as §1, §2
The relaxometric data were collected using a Bruker Minispec MQ20 NMR relaxometer. […] A datapoint plotted on figures represents an average of 5–6 T1 measurements (Figures S3–S9 in Supplementary Material). The data were fitted by using the molar r1p relaxivity value of the MnCl2 ([…] at 0.49 T and 25 °C). The equilibrium constants were calculated using the PSEQUAD program (Zékány and Nagypál, [1985]).
In order to gain information on the thermodynamic stability of the Mn(II) complexes, samples containing the metal and ligand in 1 to 1 molar ratio were studied by pH potentiometry or ^1H-relaxometry and in some cases by a combination of the two methods. The titration data were fitted by assuming the existence of [M(L)] and some protonated species ([M(HiL)]) at lower pH values. In some cases to fit the data obtained at higher pH, the formation of ternary hydroxido complexes ([M(L)(OH)]) were also included in the equilibrium model. The stability constants (KML) and the various protonation forms (KMHiL) of ML metal chelates are defined by Equations (3)–(5). However, a comparison of the stabilities of different complexes solely on the basic of their stability constants might be misleading because of the differences in ligand basicities. […] The pMn value accounts for the effect of proton competition (ligand basicity and complex protonation) on the stability constant essentially offering the same information as the conditional stability constant. Higher pMn values indicate a higher chelate stability at specified conditions. […]

[3] = ref Tircsó and Woods (in preparation), cited from earlier work
[4] = I = 0.1 M KCl, ref Aime et al., [2011], cited from earlier work
[5] = Dissociation kinetics of the Mn(II) complexes (acid catalyzed dissociation, metal or ligand exchange reactions); type: physicochemical; conditions: replacement of >NH in DO3A by etheric oxygen
Protocol: The dissociation reactions were followed by UV-vis spectrophotometry at 269 nm for the pyclen derivatives or at 300 nm for other complexes in the pH range of 3.6–5.0 for the exchange reactions with Cu(II) and up to pH = 6.0 when Zn(II) was used as a ligand scavenger. The acid catalyzed dissociation reactions were performed in the HCl concentration range of 0.05–1.0 M. The concentration of the complexes in the samples was 0.25 mM, while the concentration of the exchanging metal ion in the metal initiated transchelation reactions was 10–40 times higher to ensure pseudo-first-order conditions. Relaxometry was used to follow the transchelation reactions of [Mn(DOTAM)]^2+, [Mn(DO3AM^H)]^2+, [Mn(DO3A)]^−, [Mn(PCTA)]^− and [Mn(ODO3A)]^− with Cu(II)/Zn(II) ions in the pH range of 3.6–5.5 (Figures S17–S19 in Supplementary Material). The concentration of the complexes in these samples was set to 1.0–2.0 mM to achieve relatively large change during the dissociation reaction. […] The temperature was maintained at 25 °C and the ionic strength of the solutions was kept constant at 0.15 M with NaCl. N,N′-dimethyl- (DMP) and N-methyl-piperazine (NMP) buffers (log K2H = 4.18 and 4.90 at 25 °C and I = 0.15 M NaCl, respectively) were used at 0.05 M concentration to keep the pH constant. The pseudo-first-order rate constants (kobs) were calculated by fitting the absorbance or relaxivity-time data pairs to Equation (1) (1) Xt=(X0-Xe)e^-kobst+Xe where Xt, X0, and Xe are the absorbance or relaxivity at time t, at the start and at equilibrium, respectively. The calculations were performed with the computer program Micromath Scientist, version 2.0 (Salt Lake City, UT, USA) using a standard least-squares procedure.
The kinetic inertness of the Mn(II) complexes is the other important parameter for the complexes considered for use in vivo. The inertness of Mn(II) complexes formed with trisubstituted 12-memberd macrocyclic ligands were characterized either by studying the rates of acid catalyzed dissociation or by studying transmetallation reactions occurring between the complexes and a suitable exchanging metal ion such as Zn(II) or Cu(II). The demetallation reactions of labile complexes were performed at high pH by following the ligand exchange reactions with trans-CDTA and DTPA ligands. The demetallation reactions were studied in the presence of a large Cu(II)/Zn(II)/trans-CDTA/DTPA excess or by using high acid concentration in order to ensure pseudo-first-order conditions (Equation 6). Scheme 1 outlines all the possible dissociation pathways for the Mn(II) complexes. […] The reactions of the released Mn(II) and L ligand with the exchanging L' and M' reactants are assumed to be very rapid.
The rate of dissociation can be expressed by the Equation (6), where kobs is the pseudo-first-order rate constant and [Mn(L)]t is the total concentration of the species containing [Mn(L)] complex. The [Mn(L)]t will differ slightly depending on the experimental conditions (in the presence of a large metal or ligand excess). As [Mn(L)]t = [Mn(L)] + [Mn(HL)] + [Mn(H2L)] + [Mn(L)M] + [Mn(L)(L')] + [Mn(HL)(L')] for reactions performed at high pH (in the pH range of 3.0–5.0 often applied in Cu(II) exchange reactions) will involve fewer protonated species while the acid catalyzed dissociation reactions run in the strongly acidic media (0.1–1.0 M acid concentration range) predominantly contain protonated species ([Mn(L)]t = [Mn(L)]+[Mn(HL)]+[Mn(H2L)]). (6) -d[MnL]t/dt=kobs[MnL]t
By taking into account the various complex species and the possible reaction pathways as well as the protonation and stability constants of the reactive intermediates, the following equation (Equation 7) can be derived to describe the rates of dissociation. […]

[6] = buffer, 25 °C and I = 0.15 M NaCl
[7] = ligand protonation constant, I = 0.15 M NaCl, 25 °C

With CN1CCN(C)CC1 [DMP, reference compound] the “log K2H” value [1, 6] was 4.18.

For NC(=O)CN1CCNCCN(CC(N)=O)CCN(CC(N)=O)CC1 [DO3AM^H], the pMn [2] was 7.32, the “log KML” value [2] was 11.69 (2) and the “log K1H” value [1, 7] was 9.40 (5). For the same compound, the “log K2H” value [1, 7] was 6.28 (8) and the “Σ log K2H” value ([1]; I = 0.15 M NaCl, 25 °C) was 15.68.

With NC(=O)CN1CCN(CC(N)=O)CCN(CC(N)=O)CCN(CC(N)=O)CC1 [DOTAM] the pMn [2] was 8.60, the “log KML” value [2] was 11.96 (1) and the “log K1H” value [1, 7] was 7.31 (1). For the same compound, the “log K2H” value [1, 7] was 6.07 (1) and the “Σ log K2H” value ([1]; I = 0.15 M NaCl, 25 °C) was 13.38.

In the case of CC(C(=O)O)N1CCN(C(C)C(=O)O)CCN(C(C)C(=O)O)CCN(C(C)C(=O)O)CC1 (centres unmarked) [DOTMA], the “log KML” value ([3]; Mn(II) complex, 1H-relaxometry) is given as 18.37^[a], the “log KMLH” value ([3]; Mn(II) complex, 1H-relaxometry) is given as 4.56^[a] and the pMn ([3]; pH = 7.4, cM = cL = 10^−5 M) is given as 8.69. The “log K1H” value [4] was 11.72, the “log K2H” value [4] was 9.06 and the “log K3H” value [4] was 4.74. For the same compound, the “log K4H” value [4] was 5.59, the “log K5H” value [4] was 1.92 and the “Σ log K2H” value ([4]; log K1H + log K2H) was 20.78.

In the case of O=P(O)(O)CN1CCN(CP(=O)(O)O)CCN(CP(=O)(O)O)CCN(CP(=O)(O)O)CC1 [DOTP], the pMn [2] is reported as 6.43, the “log KMLH” value [2] is reported as 8.09 (1) and the “log KMHLH” value [2] is reported as 7.79 (1). For the same compound, the “log KML” value [2] was 18.98 (1), the “log KMH2LH” value [2] was 6.74 (1) and the “log K1H” value ([1]; ligand protonation constant by 1H- and 31P-NMR, I = 0.15 M NaCl, 25 °C) was 13.6 (2)^[a]. For the same compound, the “log K2H” value [1, 7] was 12.23 (3), the “log K3H” value [1, 7] was 8.63 (5) and the “log K4H” value [1, 7] was 7.45 (4). The “log K5H” value [1, 7] was 5.84 (5), the “log K6H” value [1, 7] was 5.02 (5) and the “Σ log K2H” value ([1]; I = 0.15 M NaCl, 25 °C) was 25.83.

For CN1CCNCC1 [NMP, N-methyl-piperazine, reference compound], the “log K2H” value [1, 6] was 4.90.

For O=C(O)CN1CCOCCN(CC(=O)O)CCN(CC(=O)O)CC1 [ODO3A], the pMn [2] was 8.57, the “log KMLH” value [2] was 2.77 (5) and the “log KML” value [2] was 13.88 (1). For the same compound, the “increase in the k1 value of the Mn(II) complex relative to DO3A” value [5] was 50 fold, the “log K1H” value [1, 7] was 8.74 (2) and the “log K2H” value [1, 7] was 7.58 (2). The “log K3H” value [1, 7] was 3.99 (3), the “log K4H” value [1, 7] was 2.39(3) and the “Σ log K2H” value ([1]; I = 0.15 M NaCl, 25 °C) was 16.32.

For O=C(O)CNC(=O)CN1CCN(CC(=O)NCC(=O)O)Cc2cccc(n2)CN(CC(=O)NCC(=O)O)CC1 [PC3AM^Gly], the pMn [2] was 8.37, the “log KMLH” value [2] was 3.98 (1) and the “log KMHLH” value [2] was 3.14 (1). For the same compound, the “log KML” value [2] was 13.20 (1), the “log KMLOH” value [2] was 10.67 (2) and the “log KMH2LH” value [2] was 2.87 (1). The “log K1H” value [1, 7] was 8.85 (1), the “log K2H” value [1, 7] was 4.55 (1) and the “log K3H” value [1, 7] was 3.81 (1). The “log K4H” value [1, 7] was 3.21 (1), the “log K5H” value [1, 7] was 2.80 (1) and the “log K6H” value [1, 7] was 1.38 (1). The “Σ log K2H” value ([1]; I = 0.15 M NaCl, 25 °C) was 13.40.

In the case of O=C(CN1CCN(CC(=O)N2CCCCC2)Cc2cccc(n2)CN(CC(=O)N2CCCCC2)CC1)N1CCCCC1 [PC3AM^Pip], the pMn [2] is reported as 8.86, the “log KML” value [2] is reported as 14.05 (2) and the “log KMLOH” value [2] is reported as 11.63 (2). The “log K1H” value [1, 7] was 8.74 (1), the “log K2H” value [1, 7] was 5.77 (2) and the “log K3H” value [1, 7] was 1.42 (9). For the same compound, the “Σ log K2H” value ([1]; I = 0.15 M NaCl, 25 °C) was 14.51.
